Earlier results as cited in patent publication US9622976B2, “Pharmaceutical composition” (LEK PHARMACEUTICALS D.D., priority 2006, dated 2017).

Details: pH 6.8 phosphate buffer

solubility: ≤ 2 μg per ml
SMILES: CCCc1nc2c(C)cc(-c3nc4ccccc4n3C)cc2n1Cc1ccc(-c2ccccc2C(=O)O)cc1 [Telmisartan, 2-[4-[[4-methyl-6-(1-methylbenzoimidazol-2-yl)-2-propyl-benzoimidazol-1-yl]methyl]phenyl]benzoic acid]
